We go through 24 molecules from patent publication US10435399B2, “HDAC6 inhibitory heterocyclic compound” (TAKEDA PHARMACEUTICAL COMPANY LIMITED, priority 2017, dated 2019).

The target of the test is T1, HDAC6 enzyme (Homo sapiens, UniProt Q9UBN7).
T1 construct: transducing full length HDAC6 gene into Sf-9 insect cells; GST; purchased SignalChem; host or cells: Sf-9 insect cells
T1 sequence (Q9UBN7 1-1215): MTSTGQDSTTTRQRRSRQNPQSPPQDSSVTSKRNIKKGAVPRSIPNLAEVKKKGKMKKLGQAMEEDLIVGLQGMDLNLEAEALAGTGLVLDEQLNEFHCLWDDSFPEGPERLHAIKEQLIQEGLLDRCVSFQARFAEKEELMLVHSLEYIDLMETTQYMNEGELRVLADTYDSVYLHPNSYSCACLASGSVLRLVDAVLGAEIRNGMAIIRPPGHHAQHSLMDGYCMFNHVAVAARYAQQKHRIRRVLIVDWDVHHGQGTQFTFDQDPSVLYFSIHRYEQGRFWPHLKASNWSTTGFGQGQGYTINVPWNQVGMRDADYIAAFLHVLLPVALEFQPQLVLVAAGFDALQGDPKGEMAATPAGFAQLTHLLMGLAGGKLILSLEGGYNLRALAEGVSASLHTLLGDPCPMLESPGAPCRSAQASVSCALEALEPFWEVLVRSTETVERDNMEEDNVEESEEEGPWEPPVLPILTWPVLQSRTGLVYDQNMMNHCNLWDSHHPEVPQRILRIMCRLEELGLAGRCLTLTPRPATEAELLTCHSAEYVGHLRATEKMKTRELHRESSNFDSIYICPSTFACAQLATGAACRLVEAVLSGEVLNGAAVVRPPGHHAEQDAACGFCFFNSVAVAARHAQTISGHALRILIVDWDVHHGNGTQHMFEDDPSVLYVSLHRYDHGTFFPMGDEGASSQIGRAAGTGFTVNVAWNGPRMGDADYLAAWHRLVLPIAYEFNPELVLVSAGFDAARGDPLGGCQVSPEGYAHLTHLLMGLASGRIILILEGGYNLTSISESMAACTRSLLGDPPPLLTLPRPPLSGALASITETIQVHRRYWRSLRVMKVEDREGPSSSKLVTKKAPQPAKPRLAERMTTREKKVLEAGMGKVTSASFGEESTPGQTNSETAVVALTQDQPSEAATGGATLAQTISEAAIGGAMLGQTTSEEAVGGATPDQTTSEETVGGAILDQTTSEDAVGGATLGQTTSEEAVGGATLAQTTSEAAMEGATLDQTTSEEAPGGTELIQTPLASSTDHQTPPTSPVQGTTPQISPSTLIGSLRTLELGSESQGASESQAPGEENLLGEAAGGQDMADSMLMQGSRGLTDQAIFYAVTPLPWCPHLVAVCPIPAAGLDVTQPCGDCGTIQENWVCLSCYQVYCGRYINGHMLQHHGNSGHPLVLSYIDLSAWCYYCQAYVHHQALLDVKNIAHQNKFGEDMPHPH
As to the kind of experiment: HDAC6 enzyme inhibitory activity (HDAC-Glo I/II Assay kit). Type of test: biochemical. Particulars: 10 μM; wells without enzyme = 100% inhibition; read-out: HDAC6 inhibitory rate (%) (10 μM). The essentials: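 Luminescence read-out after 20 min reaction with HDAC-Glo substrate-developer, following 60 min room-temperature preincubation of compound with Sf-9-expressed, GST-purified full-length enzyme. Inhibition is relative to no-enzyme wells set as 100%.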

As to `O=C1c2cc(-c3nnc(C(F)F)o3)ccc2CN1[C@@H]1CCCC[C@H]1N(C(=O)C(F)F)c1ccccn1` [Example 337, N-((1R,2R)-2-(6-(5-(difluoromethyl)-1,3,4-oxadiazol-2-yl)-1-oxo-1,3-dihydro-2H-isoindol-2-yl)-cyclohexyl)-2,2-difluoro-N-(pyridin-2-yl)acetamide], the inhibition at 10 µM was 101%.
Under `O=C1c2cc(-c3nnc(C(F)F)o3)cnc2CN1Cc1ccc(F)c(F)c1` [Example 338, 6-(3,4-difluorobenzyl)-3-(5-(difluoromethyl)-1,3,4-oxadiazol-2-yl)-6,7-dihydro-5H-pyrrolo[3,4-b]pyridin-5-one] stands 97%; under `O=C1c2cc(-c3nnc(C(F)F)o3)cnc2CN1Cc1ccccc1C(F)(F)F` [Example 339, 3-(5-(difluoromethyl)-1,3,4-oxadiazol-2-yl)-6-(2-(trifluoromethyl)benzyl)-6,7-dihydro-5H-pyrrolo[3,4-b]-pyridin-5-one], 96%.
Under `O=C1c2cc(-c3nnc(C(F)F)o3)cnc2CN1Cc1ccccc1Cl` [Example 340, 6-(2-chlorobenzyl)-3-(5-(difluoromethyl)-1,3,4-oxadiazol-2-yl)-6,7-dihydro-5H-pyrrolo[3,4-b]pyridin-5-one] stands 96%.
Under `CC(C)(C)OC(=O)NCC1(N2Cc3c(F)cc(-c4nnc(C(F)F)o4)cc3C2=O)CCCCC1` [Example 341, tert-butyl ((1-(6-(5-(difluoromethyl)-1,3,4-oxadiazol-2-yl)-4-fluoro-1-oxo-1,3-dihydro-2H-isoindol-2-yl)cyclohexyl)-methyl)carbamate] stands 82%.
Regarding `O=C1c2cc(-c3nnc(C(F)F)o3)cnc2CN1Cc1cccc(Cl)c1` [Example 342, 6-(3-chlorobenzyl)-3-(5-(difluoromethyl)-1,3,4,- oxadiazol-2-yl)-6,7-dihydro-5H-pyrrolo[3,4-b]pyridin-5-one], the inhibition at 10 µM stood at 100%.
Under `O=C1c2cc(-c3nnc(C(F)F)o3)cc(F)c2CN1C[C@@H]1CC(F)(F)CN1S(=O)(=O)C1CC1` [Example 343, 2-(((2S)-1-(cyclopropyl-sulfonyl)-4,4-difluoro-pyrrolidin-2-yl)methyl)-6-(5-(difluoromethyl)-1,3,4-oxadiazol-2-yl)-4-fluoroisoindolin-1-one] stands 100%; under `O=C1c2cc(-c3nnc(C(F)F)o3)cc(F)c2CN1C[C@@H]1CC(F)(F)CN1S(=O)(=O)CC(F)(F)F` [Example 344, 6-(5-(difluoromethyl)-1,3,4-oxadiazol-2-yl)-2-(((2S)-4,4-difluoro-1-((2,2,2-trifluoro-ethyl)sulfonyl)pyrrolidin-2-yl)methyl)-4-fluoroiso-indolin-1-one], 100%; under `O=C1c2cc(-c3nnc(C(F)F)o3)cc(F)c2CN1C[C@@H]1CC(F)(F)CN1S(=O)(=O)c1cccc(F)c1` [Example 345, 2-(((2S)-4,4-difluoro-1-((3-fluorophenyl)sulfonyl)-pyrrolidin-2-yl)methyl)-6-(5-(difluoromethyl)-1,3,4-oxadiazol-2-yl)-4-fluoro-isoindolin-1-one], 99%.
On to `O=C1c2cc(-c3nnc(C(F)F)o3)cnc2CN1Cc1ccncc1` [Example 346, 3-(5-(difluoromethyl)-1,3,4-oxadiazol-2-yl)-6-(pyridin-4-ylmethyl)-6,7-dihydro-5H-pyrrolo[3,4-b]pyridin-5-one], for which the inhibition at 10 µM is 94%.
With `O=C1c2cc(-c3nnc(C(F)F)o3)cnc2CN1C1(c2ccc(F)cc2)CC1` [Example 347, 3-(5-(difluoromethyl)-1,3,4-oxadiazol-2-yl)-6-(1-(4-fluorophenyl)cyclopropyl)-6,7-dihydro-5H-pyrrolo[3,4-b]pyridin-5-one], the inhibition at 10 µM was found to be 98%.
Take `O=C1c2cc(-c3nnc(C(F)F)o3)cnc2CN1Cc1ccc(F)cc1F` [Example 348, 6-(2,4-difluorobenzyl)-3-(5-(difluoromethyl)-1,3,4-oxadiazol-2-yl)-6,7-dihydro-5H-pyrrolo-[3,4-b]pyridin-5-one]: the inhibition at 10 µM amounted to 99%.
Under `Cc1cc(CN2Cc3ncc(-c4nnc(C(F)F)o4)cc3C2=O)no1` [Example 349, 3-(5-(difluoromethyl)-1,3,4-oxadiazol-2-yl)-6-((5-methyl-1,2-oxazol-3-yl)methyl)-6,7-dihydro-5H-pyrrolo[3,4-b]pyridin-5-one] stands 99%; under `O=C1c2cc(-c3nnc(C(F)F)o3)cnc2CN1C1(c2ccccc2F)CC1` [Example 350, 3-(5-(difluoromethyl)-1,3,4-oxadiazol-2-yl)-6-(1-(2-fluorophenyl)cyclopropyl)-6,7-dihydro-5H-pyrrolo[3,4-b]pyridin-5-one], 99%.
Under `O=C1c2cc(-c3nnc(C(F)F)o3)cnc2CN1Cc1ccccc1F` [Example 351, 3-(5-(difluoromethyl)-1,3,4-oxadiazol-2-yl)-6-(2-fluoro-benzyl)-6,7-dihydro-5H-pyrrolo[3,4-b]pyridin-5-one] stands 98%; under `CC(C)(C)OC(=O)N1CC(F)(F)C[C@@H]1CN1Cc2c(F)cc(-c3nnc(C(F)F)o3)cc2C1=O` [Example 352, tert-butyl (2R)-2-((6-(5-(difluoromethyl)-1,3,4-oxadiazol-2-yl)-4-fluoro-1-oxo-1,3-dihydro-2H-isoindol-2-yl)methyl)-4,4-difluoropyrrolidine-1-carboxylate], 99%; under `O=C1c2cc(-c3nnc(C(F)F)o3)cnc2CN1Cc1cc(F)cc(F)c1` [Example 353, 6-(3,5-difluorobenzyl)-3-(5-(difluoromethyl)-1,3,4-oxadiazol-2-yl)-6,7-dihydro-5H-pyrrolo[3,4-b]pyridin-5-one], 98%.
To `O=C1c2cc(-c3nnc(C(F)F)o3)cc(F)c2CN1C[C@H]1CC(F)(F)CN1` [Example 354, 6-(5-(difluoromethyl)-1,3,4-oxadiazol-2-yl)-2-(((2R)-4,4-difluoropyrrolidin-2-yl)-methyl)-4-fluoroisoindolin-1-one] belongs 92%; to `O=C1c2cc(-c3nnc(C(F)F)o3)cnc2CN1Cc1cccc(C(F)(F)F)c1` [Example 355], 100%; to `O=C1c2cc(-c3nnc(C(F)F)o3)cc(F)c2CN1C[C@H]1CC(F)(F)CN1S(=O)(=O)C1CC1` [Example 356, 2-(((2R)-1-(cyclopropyl-sulfonyl)-4,4-difluoro-pyrrolidin-2-yl)methyl)-6-(5-(difluoromethyl)-1,3,4-oxadiazol-2-yl)-4-fluoro-isoindolin-1-one], 101%.
Consider `COc1ccccc1CN1Cc2ncc(-c3nnc(C(F)F)o3)cc2C1=O` [Example 357, 3-(5-(difluoromethyl)-1,3,4-oxadiazol-2-yl)-6-(2-methoxybenzyl)-6,7-dihydro-5H-pyrrolo[3,4-b]-pyridin-5-one], for which the inhibition at 10 µM is 98%.
Under `O=C1c2cc(-c3nnc(C(F)F)o3)cnc2CN1Cc1ccccc1OC(F)F` [Example 358, 6-(2-(difluoromethoxy)-benzyl)-3-(5-(difluoro-methyl)-1,3,4-oxadiazol-2-yl)-6,7-dihydro-5H-pyrrolo-[3,4-b]pyridin-5-one] stands 102%; under `O=C1c2cc(-c3nnc(C(F)F)o3)cnc2CN1Cc1cccnc1` [Example 359, 3-(5-(difluoromethyl)-1,3,4-oxadiazol-2-yl)-6-(pyridin-3-ylmethyl)-6,7-dihydro-5H-pyrrolo[3,4-b]pyridin-5-one], 97%; under `O=C1c2cc(-c3nnc(C(F)F)o3)cc(F)c2CN1[C@@H]1CCOC[C@H]1NCC(F)(F)F` [Example 360, 6-(5-(difluoromethyl)-1,3,4-oxadiazol-2-yl)-4-fluoro-2-((3S,4R)-3-((2,2,2-trifluoro-ethyl)amino)tetrahydro-2H-pyran-4-yl)isoindolin-1-one], 103%.
